PMC11571015, “Hybrids of Membrane-Translocating Antimicrobial Peptides Show Enhanced Activity through Membrane Permeabilization” (ACS Medicinal Chemistry Letters, 2024)
Converted amounts (≈) assume the structure as drawn.

What was measured:
[1] = tested on: B. subtilis; assay type: cell-based, B. subtilis (ATCC #6051); conditions: 1 h, pH 7.4
Method: (§1) Supplemental Information for Trevellin et al.
(§2) Peptide design and preparation […]
(§3) synthesized by GenScript (Piscataway, NJ) at >95% purity determined by HPLC and dissolved in DI water. Concentrations were measured by triplicate tryptophan absorbance readings at 280 nm (ε=5700 M–1cm–1, l=1 cm) using a ThermoScientific NanoDrop 2000 (Waltham, MA). Buforin II (BF2) included an F10W mutation used in many previous studies1-5 to allow for concentration measurements.
(§4) Bacteria included E. coli (Top10 Strain, Invitrogen/ThermoFisher) containing a plasmid for ampicillin resistance (Novagen) and/or B. subtilis (ATCC #6051). Bacterial growth was performed in TSB (trypticase soy broth) prepared at 3% w/v (30 g of media in 1 L) from BD Difco unless otherwise noted. Overnight cultures were picked from petri dishes or frozen stock and grown for 14-16 hours at 37 °C in TSB with shaking. E. coli overnight cultures were incubated with 25 μg/mL ampicillin. The overnight cultures were then diluted 1:100 in 25 mL TSB and incubated at 37 °C with shaking for 2.5 h. The culture was pelleted via centrifugation at 1500×g for 10 min at room temperature and resuspended in sterile cold wash buffer (10 mM sodium phosphate buffer and 10 mM sodium chloride, pH 7.4). These resuspended bacteria were then used for radial diffusion, microbroth dilution, and propidium iodide assays. […]
(§5) Microbroth dilution assay
(§6) Microbroth dilution assays were used to determine the minimum inhibitory concentration (MIC) of each peptide for E. coli and B. subtilis (ATCC #6051). A 1:2 serial dilution was prepared for a peptide across the top row of a 96-well plate. 100 μL of bacterial suspension (4 × 10^6 CFU/mL, diluted in sterile wash buffer, 10 mM sodium phosphate buffer and 10 mM sodium chloride, pH 7.4) and 10 μL of peptide were mixed to each well in subsequent rows of the plate. The 11 effective peptide concentrations ranged from 18.2 μM to 1.8x10-2 μM, with DI water used as a control, and each concentration was tested in triplicate per plate. After the bacteria and peptide mixtures were incubated in plates at 37°C for 1 hour, 100 μL of 6% w/v TSB was added to each well. For wells containing E. coli, ampicillin was added at a final concentration of 25 µg/ml. The plate was then incubated overnight (18-24 h) at 37°C. After incubation, OD600nm were measured using the SpectraMax M3 microplate reader (Molecular Devices). […]
(§7) relative permeability = F5/F0
(§8) Each peptide was tested with bacteria grown from at least three distinct overnight […]
(§9) The MTS assay is a colorimetric viability assay for mammalian cells. HEK 293 cells (ATCC CRL-1573) were grown in complete growth medium (EMEM, 10% fetal bovine serum, 1% penicillin-streptomycin). Cells were cultured in a T-75 maintenance flask, fed with fresh media every 1-2 days, and passaged approximately every 5-7 days once cells reached 70-90% confluence. During passaging, HEK 293 cells were plated in a 96-well plate at 20,000 cells/well and incubated for 4-6 hours (37 °C, 95% humidity, 5% CO2). Each column of cells (8 replicates) was then incubated overnight with 18.2 µM peptide or a control. After incubation, media was aspirated and refreshed for each well, […]

[2] = tested on: E. coli; assay type: cell-based, E. coli (Top10 Strain); conditions: median MIC; microbroth dilution, 1:2 serial dilution 18.2 to 1.8x10-2 μM, 4 × 10^6 CFU/mL, 1 h 37°C in wash buffer pH 7.4, then TSB overnight (18-24 h), OD600; triplicate per plate; mixture: each peptide at the reported concentration
Method: as §1, §2, §3, §4, §5, §6, §7, §8, §9

Structure (SMILES): CC[C@H](C)[C@H](NC(=O)[C@H](CCCNC(=N)N)NC(=O)[C@@H](NC(=O)[C@H](CCCCN)NC(=O)[C@H](CCCCN)NC(=O)[C@H](CC(N)=O)NC(=O)[C@H](CC(=O)O)NC(=O)[C@H](CCCNC(=N)N)NC(=O)[C@H](C)N)[C@@H](C)O)C(=O)N[C@@H](Cc1c[nH]c2ccccc12)C(=O)N1CCC[C@H]1C(=O)N[C@@H](CCCNC(=N)N)C(=O)N[C@@H](Cc1c[nH]cn1)C(=O)N[C@@H](CC(C)C)C(=O)N[C@@H](CCC(N)=O)C(=O)N[C@@H](CC(C)C)C(=O)N[C@@H](C)C(=O)N[C@H](C(=O)N[C@@H](CCCNC(=N)N)C(=O)N[C@@H](CC(N)=O)C(=O)N1CCC[C@H]1C(=O)N[C@H](C(=O)N[C@@H](CCCNC(=N)N)C(=O)N[C@@H](CO)C(=O)N[C@@H](CO)C(=O)N[C@@H](CCCNC(=N)N)C(=O)N[C@@H](C)C(=O)NCC(=O)N[C@@H](CC(C)C)C(=O)N[C@@H](CCC(N)=O)C(=O)N[C@@H](Cc1c[nH]c2ccccc12)C(=O)N1CCC[C@H]1C(=O)N[C@H](C(=O)NCC(=O)N[C@@H](CCCNC(=N)N)C(=O)N[C@H](C(=O)N[C@@H](Cc1c[nH]cn1)C(=O)N[C@@H](CCCNC(=N)N)C(=O)N[C@@H](CC(C)C)C(=O)N[C@@H](CC(C)C)C(=O)N[C@@H](CCCNC(=N)N)C(=O)N[C@@H](CCCCN)C(=O)O)C(C)C)C(C)C)[C@@H](C)O)C(C)C [DesHDAP1-P-BF2 (DPB)]
- MIC against B. subtilis [1]: 4.6 µM (≈ 23.1 µg/mL)
- MIC against E. coli [2]: 1.1 µM (≈ 5.53 µg/mL)
